Assay results as given in patent publication US12240843B2, “Substituted 1,2,4-triazolo[4,3-a]pyridine derivative and preparation method, herbicidal composition and application thereof” (Qingdao Kingagroot Chemical Compound Co., Ltd., priority 2019, dated 2025).

Key:
Assay type in all cases: in vivo
Abutilon theophrasti = assay: Weed effect in pre-emergence stage; details: direct seeding of rice; dose not given
Procedure: (§1) Seeds of monocotyledonous and dicotyledonous weeds and main crops (e.g. wheat, corn, rice, soybean, cotton, oilseed rape, millet and Sorghum) were put into a plastic pot loaded with soil and covered with 0.5-2 cm soil. The test compounds of the present invention was dissolved with acetone, then added with tween 80, diluted by a certain amount of water to reach a certain concentration, and sprayed immediately after sowing. The obtained seeds were incubated for 4 weeks in the greenhouse after spraying and the test results were observed. It was observed that the herbicide mostly had excellent effect at the application rate of 250 g a.i./ha, especially to weeds such as Echinochloa crusgalli, Digitaria sanguinalis, Leptochloa chinensis, and Abutilon theophrasti, etc. . . . And many compounds had good selectivity for corn, wheat, rice, soybean, and oilseed rape, etc. . . .

Echinochloa crusgalli [1] = assay: Weed effect in pre-emergence stage; details: direct seeding of rice; dose not given
Procedure: as §1

Digitaria sanguinalis [2] = assay: Weed effect in pre-emergence stage; details: direct seeding of rice; dose not given
Procedure: as §1

Leptochloa chinensis [3] = assay: Weed effect in pre-emergence stage; details: direct seeding of rice; dose not given
Procedure: as §1

Echinochloa crusgalli [4] = assay: Weeding effect in post-emergence stage, greenhouse pot spray
Procedure: (§2) The above growth control rates are fresh weight control rates.
(§3) (1) Experiment on weeding effect in post-emergence stage: monocotyledonous and dicotyledonous weed seeds and major crop seeds (wheat, corn, rice, soybean, cotton, oilseed rape, millet, Sorghum) were placed in plastic pots filled with soil, then covered with 0.5-2 cm of soil, allowed to grow in a good greenhouse environment. After 2 weeks of sowing, the test plants were treated. The tested compounds of the present invention were respectively dissolved in acetone, then added with Tween 80, diluted with a certain amount of water to obtain a solution with a certain concentration, added with 1000 g/ha of emulsified methyl oleate as a synergist, and sprayed with a spray tower onto the plants. After the application, the plants were cultured for 3 weeks in the greenhouse, and then the experimental results of the weeding were listed in Table 2-3.

Digitaria sanguinalis [5] = assay: as above
Procedure: as §2, §3

Leptochloa chinensis [6] = assay: as above
Procedure: as §2, §3

[7] = test system: Amaranthus retroflexus L.; assay: as above; details: 240 g/ha active ingredient, plus water 450 kg/ha; weeds 2-3 leaf stage; 3 weeks after application
Procedure: as §2, §3

rice = assay: Pre-emergence stage crop selectivity; details: dose not given
Procedure: as §1

[8] = test system: rice (indica rice huanghuazhan); assay: Post-emergence stage crop damage, greenhouse pot spray; details: for plant damage level, rice (indica rice huanghuazhan), post-emergence: 240 g/ha active ingredient, plus water 450 kg/ha, 3 weeks after application
Procedure: as §3

japonica rice = assay: as above
Description: (§4) The activity level criteria for plant damage (i.e., growth control rate) are as follows: • Level 5: growth control rate is above 85%; • Level 4: growth control rate is greater than or equal to 60% and less than 85%; • Level 3: growth control rate is greater than or equal to 40% and less than 60%; • Level 2: growth control rate is greater than or equal to 20% and less than 40%; • Level 1: growth control rate is greater than or equal to 5% and less than 20%; • Level 0: growth control rate is less than 5%.
as §2, §3

Setaria viridis = assay: Weeding effect in post-emergence stage, greenhouse pot spray
Description: as §4, §2, §3

[9] = 240 g/ha active ingredient, plus water 450 kg/ha, weeds 2-3 leaf stage, 3 weeks after application

SMILES | sealing effects on Abutilon theophrasti, pre-emergence (Abutilon theophrasti) | sealing effects on Echinochloa crusgalli, pre-emergence (Echinochloa crusgalli [1]) | sealing effects on Digitaria sanguinalis, pre-emergence (Digitaria sanguinalis [2]) | sealing effects on Leptochloa chinensis, pre-emergence (Leptochloa chinensis [3]) | weeding effect in post-emergence stage, Echinochloa crusgalli (activity level) (Echinochloa crusgalli [4]; [9]) | weeding effect in post-emergence stage, Echinochloa crusgalli (activity level) (Echinochloa crusgalli [4]; Dose 30 g/ha) | weeding effect in post-emergence stage, Echinochloa crusgalli (activity level) (Echinochloa crusgalli [4]; Dose 60 g/ha) | weeding effect in post-emergence stage, Echinochloa crusgalli (activity level) (Echinochloa crusgalli [4]; Dose 120 g/ha) | weeding effect in post-emergence stage, Digitaria sanguinalis (activity level) (Digitaria sanguinalis [5]; [9]) | weeding effect in post-emergence stage, Digitaria sanguinalis (activity level) (Digitaria sanguinalis [5]; Dose 30 g/ha) | weeding effect in post-emergence stage, Digitaria sanguinalis (activity level) (Digitaria sanguinalis [5]; Dose 60 g/ha) | weeding effect in post-emergence stage, Digitaria sanguinalis (activity level) (Digitaria sanguinalis [5]; Dose 120 g/ha) | weeding effect in post-emergence stage, Leptochloa chinensis (activity level) (Leptochloa chinensis [6]; [9]) | weeding effect in post-emergence stage, Leptochloa chinensis (activity level) (Leptochloa chinensis [6]; Dose 30 g/ha) | weeding effect in post-emergence stage, Leptochloa chinensis (activity level) (Leptochloa chinensis [6]; Dose 60 g/ha) | weeding effect in post-emergence stage, Leptochloa chinensis (activity level) (Leptochloa chinensis [6]; Dose 120 g/ha) | weeding effect in post-emergence stage, Amaranthus retroflexus L. (activity level) [7] | safety for direct seeding of rice, pre-emergence (rice) | plant damage level, rice (indica rice huanghuazhan), post-emergence [8] | plant damage level, indica rice, post-emergence ([8]; Dose 30 g/ha) | other results
O=C(c1ccn2c(C3CC3)nnc2c1Cl)C1C(=O)C2CCC(C2)C1=O (centres unmarked) [Compound 274] | excellent sealing effects | excellent sealing effects | excellent sealing effects | excellent sealing effects | 5 (Level 5: growth control rate is above 85%) | 5 (Level 5: growth control rate is above 85%) | 5 (Level 5: growth control rate is above 85%) | 5 (Level 5: growth control rate is above 85%) | 5 (Level 5: growth control rate is above 85%) | 5 (Level 5: growth control rate is above 85%) | 5 (Level 5: growth control rate is above 85%) | 5 (Level 5: growth control rate is above 85%) | 5 (Level 5: growth control rate is above 85%) | 5 (Level 5: growth control rate is above 85%) | 5 (Level 5: growth control rate is above 85%) | 5 (Level 5: growth control rate is above 85%) | 5 (Level 5: growth control rate is above 85%) | safe and efficient | 0 (Level 0: growth control rate is less than 5%) | 0 (Level 0: growth control rate is less than 5%) | plant damage level, indica rice, post-emergence ([8]; Dose 60 g/ha): 0 (Level 0: growth control rate is less than 5%); plant damage level, indica rice, post-emergence ([8]; Dose 120 g/ha): 0 (Level 0: growth control rate is less than 5%); plant damage level, japonica rice, post-emergence (japonica rice; Dose 30 g/ha): 0 (Level 0: growth control rate is less than 5%); plant damage level, japonica rice, post-emergence (japonica rice; Dose 60 g/ha): 0 (Level 0: growth control rate is less than 5%); plant damage level, japonica rice, post-emergence (japonica rice; Dose 120 g/ha): 0 (Level 0: growth control rate is less than 5%); weeding effect in post-emergence stage, Setaria viridis (activity level) (Setaria viridis; Dose 30 g/ha): 5 (Level 5: growth control rate is above 85%); weeding effect in post-emergence stage, Setaria viridis (activity level) (Setaria viridis; Dose 60 g/ha): 5 (Level 5: growth control rate is above 85%); weeding effect in post-emergence stage, Setaria viridis (activity level) (Setaria viridis; Dose 120 g/ha): 5 (Level 5: growth control rate is above 85%)
O=C1CCCC(=O)C1C(=O)c1ccn2c(C3CC3)nnc2c1Cl [Compound 2] | excellent sealing effects | excellent sealing effects | excellent sealing effects | excellent sealing effects | 5 (Level 5: growth control rate is above 85%) | 5 (Level 5: growth control rate is above 85%) | 5 (Level 5: growth control rate is above 85%) | 5 (Level 5: growth control rate is above 85%) | 5 (Level 5: growth control rate is above 85%) | 5 (Level 5: growth control rate is above 85%) | 5 (Level 5: growth control rate is above 85%) | 5 (Level 5: growth control rate is above 85%) | 5 (Level 5: growth control rate is above 85%) | 5 (Level 5: growth control rate is above 85%) | 5 (Level 5: growth control rate is above 85%) | 5 (Level 5: growth control rate is above 85%) | 5 (Level 5: growth control rate is above 85%) | safe and efficient | 0 (Level 0: growth control rate is less than 5%) | 0 (Level 0: growth control rate is less than 5%) | plant damage level, indica rice, post-emergence ([8]; Dose 60 g/ha): 0 (Level 0: growth control rate is less than 5%); plant damage level, indica rice, post-emergence ([8]; Dose 120 g/ha): 0 (Level 0: growth control rate is less than 5%); plant damage level, japonica rice, post-emergence (japonica rice; Dose 30 g/ha): 0 (Level 0: growth control rate is less than 5%); plant damage level, japonica rice, post-emergence (japonica rice; Dose 60 g/ha): 0 (Level 0: growth control rate is less than 5%); plant damage level, japonica rice, post-emergence (japonica rice; Dose 120 g/ha): 0 (Level 0: growth control rate is less than 5%); weeding effect in post-emergence stage, Setaria viridis (activity level) (Setaria viridis; Dose 30 g/ha): 5 (Level 5: growth control rate is above 85%); weeding effect in post-emergence stage, Setaria viridis (activity level) (Setaria viridis; Dose 60 g/ha): 5 (Level 5: growth control rate is above 85%); weeding effect in post-emergence stage, Setaria viridis (activity level) (Setaria viridis; Dose 120 g/ha): 5 (Level 5: growth control rate is above 85%)
CSc1nnc2c(Cl)c(C(=O)C3C(=O)CCCC3=O)ccn12 [Compound 118] | – | – | – | – | 5 (Level 5: growth control rate is above 85%) | – | – | – | 5 (Level 5: growth control rate is above 85%) | – | – | – | 5 (Level 5: growth control rate is above 85%) | – | – | – | 5 (Level 5: growth control rate is above 85%) | – | 0 (Level 0: growth control rate is less than 5%) | – | –
O=C1CCCC(=O)C1C(=O)c1ccn2c(C3CC3(F)F)nnc2c1Cl (centres unmarked) [Compound 87] | – | – | – | – | 4 (Level 4: growth control rate is greater than or equal to 60% and less than 85%) | – | – | – | 4 (Level 4: growth control rate is greater than or equal to 60% and less than 85%) | – | – | – | 5 (Level 5: growth control rate is above 85%) | – | – | – | 5 (Level 5: growth control rate is above 85%) | – | 0 (Level 0: growth control rate is less than 5%) | – | –
COc1nnc2c(Cl)c(C(=O)C3C(=O)CCCC3=O)ccn12 [Compound 114] | – | – | – | – | 5 (Level 5: growth control rate is above 85%) | – | – | – | 5 (Level 5: growth control rate is above 85%) | – | – | – | 5 (Level 5: growth control rate is above 85%) | – | – | – | 5 (Level 5: growth control rate is above 85%) | – | 0 (Level 0: growth control rate is less than 5%) | – | –
